Assay results as given in ChEMBL document CHEMBL3120068, “Identification of diverse natural products as falcipain-2 inhibitors through structure-based virtual screening” (Bioorg Med Chem Lett, 2014).
pIC50: −log10 of the molar value.

Legend:
[1] = Inhibition of recombinant Plasmodium falciparum falcipain 2 after 30 mins by fluorescence assay
Plasmodium falciparum [2] = assay: Antiplasmodial activity against chloroquine-resistant blood stage Plasmodium falciparum Dd2 after 72 hrs by SYBR Green I-based fluorescence assay; type: functional, organism-based; details: Dd2, 72 h
Plasmodium falciparum [3] = assay: Antiplasmodial activity against chloroquine-sensitive blood stage Plasmodium falciparum 3D7 after 72 hrs by SYBR Green I-based fluorescence assay; type: functional, organism-based; details: 3D7, 72 h

Compound `CCCCOC(=O)[C@H]1c2c(/C=C/C(=O)O[C@H](Cc3ccc(O)c(O)c3)C(=O)O)ccc(O)c2O[C@@H]1c1ccc(O)c(O)c1` has a pIC50 [1] of 5.50.

For `O=C1c2c(O)cc(O)cc2O[C@H](c2cc(O)c(O)c(O)c2)[C@@H]1O`, the pIC50 (Plasmodium falciparum [2]) was < 4.30, the pIC50 (Plasmodium falciparum [3]) was 4.12 and the pIC50 [1] was 4.35.

Work on `O=C1c2c(O)cc(O)cc2O[C@@]2(c3ccc(O)cc3)Oc3cc(O)c4c(c3[C@]12O)O[C@H](c1ccc(O)cc1)CC4` yielded a pIC50 (Plasmodium falciparum [2]) of 4.18, a pIC50 (Plasmodium falciparum [3]) of 4.22 and a pIC50 [1] of 5.28.

Work on `CCOC(=O)c1c(O)cc(O)c2c1OC(c1ccc(O)cc1)CC2` (configuration not stated) yielded a pIC50 (Plasmodium falciparum [2]) of 4.06, a pIC50 (Plasmodium falciparum [3]) of 4.22 and a pIC50 [1] of 5.04.

For `COc1cc(O[C@@H]2O[C@H](CO[C@@H]3OC[C@@H](O)[C@H](O)[C@H]3O)[C@@H](O)[C@H](O)[C@H]2O)c2c(=O)cc(-c3ccc(O)cc3)oc2c1`, the pIC50 (Plasmodium falciparum [2]) was < 3.30, the pIC50 (Plasmodium falciparum [3]) was < 3.60 and the pIC50 [1] was 4.77.

`COc1cc(-c2oc3cc(O)cc(O)c3c(=O)c2O[C@@H]2O[C@H](COC(C)=O)[C@@H](O)[C@H](O)[C@H]2O)cc(OC)c1O` gave a pIC50 [1] of 4.17.

`C[C@@H]1CC[C@H]2[C@@H](C)C(=O)O[C@@H]3O[C@@]4(C)CC[C@@H]1[C@]32OO4` [ARTEMISININ] showed a pIC50 (Plasmodium falciparum [2]) of 7.31 and a pIC50 (Plasmodium falciparum [3]) of 7.40.

With `COC(=O)[C@@H](Cc1ccc(O)c(O)c1)OC(=O)/C=C/c1ccc(O)c2c1[C@H](C(=O)OC)[C@@H](c1ccc(O)c(O)c1)O2` [DIMETHYL LITHOSPERMATE] the pIC50 [1] was 5.42.

For `CC(C)C[C@H](NC(=O)[C@H]1O[C@@H]1C(=O)O)C(=O)NCCCCN=C(N)N` [E-64], the pIC50 [1] was 7.77.

With `C[C@@H]1O[C@@H](O[C@H]2[C@H](O)[C@@H](COC(=O)/C=C/c3ccc(O)c(O)c3)O[C@H]3OC[C@H](c4ccc(O)c(O)c4)O[C@@H]32)[C@H](O)[C@H](O)[C@H]1O` [ISOCRENATOSIDE] the pIC50 (Plasmodium falciparum [2]) was 4.03, the pIC50 (Plasmodium falciparum [3]) was < 4.30 and the pIC50 [1] was 4.27.

Compound `O=c1c(O[C@@H]2O[C@H](CO)[C@@H](O)[C@H](O)[C@H]2O)c(-c2ccc(O)c(O)c2)oc2cc(O)cc(O)c12` [ISOQUERCETIN] has a pIC50 (Plasmodium falciparum [2]) of 5.39, a pIC50 (Plasmodium falciparum [3]) of 5.26 and a pIC50 [1] of 4.80.

For `O=C1c2c(O)cc(O)cc2O[C@H](c2ccc(O)c(O)c2)[C@H]1O` [TAXIFOLIN], the pIC50 (Plasmodium falciparum [2]) was 4.26, the pIC50 (Plasmodium falciparum [3]) was 4.32 and the pIC50 [1] was 4.24.
